Assay results reported in patent US5939437A, “CCK and gastrin receptor ligands” (James Black Foundation Limited, priority 1994, dated 1999).

Columns and labels:
CCKB = molecular target: T1, CCKB (Mus musculus, UniProt P56481); test: radioligand binding assay at the CCKB (CCK8 [sic]) receptor in mouse cortical membranes; conditions: [125I]-CCK8S 200 pM, 150 min at 21±3° C.; for Ki: read-out: CCKB pKi (converted)
T1 construct: The cortex was dissected, weighed and homogenised in 40 ml ice-cold buffer; from tissue; host or cells: cerebral cortex membranes of male CD1 mice (Charles River)
T1 sequence (P56481 1-453): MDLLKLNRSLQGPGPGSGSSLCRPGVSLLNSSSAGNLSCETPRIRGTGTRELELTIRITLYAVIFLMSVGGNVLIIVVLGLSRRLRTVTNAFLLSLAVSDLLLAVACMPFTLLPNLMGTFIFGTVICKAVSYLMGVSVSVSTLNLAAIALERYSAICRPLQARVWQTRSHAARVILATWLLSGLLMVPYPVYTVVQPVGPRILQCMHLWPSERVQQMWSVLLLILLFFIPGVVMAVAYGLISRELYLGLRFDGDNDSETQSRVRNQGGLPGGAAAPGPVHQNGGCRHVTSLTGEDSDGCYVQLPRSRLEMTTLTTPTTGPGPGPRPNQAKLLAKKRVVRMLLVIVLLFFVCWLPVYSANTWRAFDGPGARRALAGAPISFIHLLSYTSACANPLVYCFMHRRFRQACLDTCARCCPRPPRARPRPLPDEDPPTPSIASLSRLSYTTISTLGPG
Procedure: The compounds of the examples were tested for binding at the CCK8 receptor in mouse cortical membranes by means of a radioligand binding assay. The procedure was as follows: The whole brains from male mice (CD1 22-25 g; Charles River) were removed and placed in ice-cold buffer (pH7.2@21±3° C.) of the following composition (mM); 10 HEPES, 130 NaCl, 4.7 KCl, 5 MgCl2, 1 EDTA and containing 0.25 g.1^-1 bacitracin. The cortex was dissected, weighed and homogenised in 40 ml ice-cold buffer using a Teflon-in-glass homogeniser. The homogenate was centrifuged at 39,800 g for 20 min at 4° C., the supernatant discarded and the pellet resuspended by homogenisation in fresh buffer. The homogenate was recentrifuged (39,800 g; 20 min@4° C.) and the final pellet was resuspended in HEPES buffer to give a tissue concentration of 2 mg.ml^-1 (original wet weight). The membranes ([…]) were incubated for 150 min at 21±3° C. in a final volume of 0.5 ml with HEPES buffer containing [^25 I]-CCK8S (0.05 ml; 200 pM NEN 2200 Ci.mmol^-1) and competing compound. Total and non-specific binding of [^125 I]-CCK8S were defined using 0.05 ml of buffer and 0.05 ml of […] L-365,260, respectively. The assay was terminated by rapid filtration through pre-soaked Whatman GF/B 35 filters using a Brandell Cell harvester. The filters were washed (3×3 ml) with ice-cold 5 mM Tris-HCl (pH7.4@4° C.) and bound radioactivity determined by counting (1 min.) in a gamma-counter.

Gastrin = molecular target: T2, Gastrin (Rattus norvegicus, UniProt P30553); test: gastrin antagonist activity in an immature rat stomach assay (pentagastrin-stimulated acid secretion, isolated stomach); conditions: cumulative pentagastrin dose-response curves, 60 min after drug; for Kb: read-out: Gastrin pKB (converted)
T2 construct: The stomach was excised and flushed with ca. 1 ml unbuffered physiological saline solution; from tissue; host or cells: isolated whole stomach of immature rats (33-50 g, ca. 21 days old)
T2 sequence (P30553 1-452): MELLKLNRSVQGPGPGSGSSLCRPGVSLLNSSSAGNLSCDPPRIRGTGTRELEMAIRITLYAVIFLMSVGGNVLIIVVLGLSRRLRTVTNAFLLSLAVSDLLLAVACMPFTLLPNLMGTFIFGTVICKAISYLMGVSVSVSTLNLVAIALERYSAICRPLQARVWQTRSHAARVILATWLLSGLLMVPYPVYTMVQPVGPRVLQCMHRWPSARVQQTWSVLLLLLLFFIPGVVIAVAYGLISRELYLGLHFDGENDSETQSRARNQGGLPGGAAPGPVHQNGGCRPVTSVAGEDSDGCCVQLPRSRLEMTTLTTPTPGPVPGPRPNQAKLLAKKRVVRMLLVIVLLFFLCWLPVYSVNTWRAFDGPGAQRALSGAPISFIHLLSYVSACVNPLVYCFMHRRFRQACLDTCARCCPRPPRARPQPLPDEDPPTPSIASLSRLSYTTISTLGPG
Procedure: The compounds of the examples were also tested for gastrin antagonist activity in an immature rat stomach assay. The procedure was follows:
The oesophagus of immature rats (33-50 g, ca. 21 days old) was ligated at the level of the cardiac sphincter and the duodenal sphincter was cannulated. The stomach was excised and flushed with ca. 1 ml unbuffered physiological saline solution. The fundus was punctured and cannulated. A further 4-5 ml of unbuffered solution was flushed through the stomach to ensure the preparation was not leaking. The stomach was lowered into a jacketed organ bath containing 40 ml of buffered solution containing 3×10^-8 M5methylfurmethide, maintained at 37° and gassed vigorously with 95% O2 /5% CO2. The stomach was continuously perfused at a rate of 1 ml min^-1 with unbuffered solution gassed with 100% O2 with the perfusate passing over an internally referenced pH-electrode fixed 12 cm above the stomach.
After 120 min of stabilisation the drugs were added directly to the serosal solution in the organ bath and after a further 60 min cumulative pentagastrin dose-response curves were started. Changes in acid secretion were monitored and the curves analysed according to Black et. al., Br. J. Pharmacol., 1985, 86, 581.

CCKA = molecular target: T3, CCKA (Cavia porcellus, UniProt Q63931); test: CCKA binding assay (guinea-pig pancreas membranes); conditions: [125I]-CCK8(S) 200 pM, 0.375 μM PD134,308 present, 150 minutes at 21±3° C.; for Ki: read-out: CCKA pKi (converted)
T3 construct: The pancreatata were homogenised in 40 ml ice-cold HEPES buffer; from tissue; host or cells: pancreas membranes of male Dunkin Hartley guinea-pigs
T3 sequence (Q63931 1-430): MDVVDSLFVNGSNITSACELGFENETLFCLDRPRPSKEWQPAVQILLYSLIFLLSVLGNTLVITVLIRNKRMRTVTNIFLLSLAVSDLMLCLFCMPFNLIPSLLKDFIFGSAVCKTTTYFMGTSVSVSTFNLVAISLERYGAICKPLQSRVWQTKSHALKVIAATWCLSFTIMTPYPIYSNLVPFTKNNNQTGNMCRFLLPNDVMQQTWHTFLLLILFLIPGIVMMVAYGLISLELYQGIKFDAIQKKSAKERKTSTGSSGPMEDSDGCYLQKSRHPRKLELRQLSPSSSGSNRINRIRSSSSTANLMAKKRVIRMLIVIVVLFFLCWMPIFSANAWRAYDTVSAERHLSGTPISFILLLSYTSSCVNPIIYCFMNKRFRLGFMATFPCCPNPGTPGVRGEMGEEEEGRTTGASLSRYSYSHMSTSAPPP
Procedure: The compounds of the examples were also tested in a CCKA binding assay as follows:
The pancreatata were removed from male guinea-pigs (200-300 g; Dunkin Hartley) and placed in ice-cold HEPES buffer (pH 7.2@21 ±3° C.). The pancreatata were homogenised in 40 ml ice-cold HEPES buffer using a polytron (Brinkman, PT10, setting 10) 4×1 second. The homogenate was centrifuged at 39,800 g for 15 min at 4° C. The supernatant was discarded and the pellet re-suspended using a Teflon-in-glass homogeniser in 20 volumes of fresh buffer and re-centrifuged as above. The final pellet was re-suspended using a Teflon-in-glass homogeniser to a tissue concentration of 1 mg.ml^-1 (original wet weight), and filtered through 500 μm pore-size Nytex mesh.
The membranes (400 μl; containing 0.375 μM PD134,308) are incubated for 150 minutes at 21±3° C. in a final volume of 0.5 ml with HEPES buffer containing [^125 I]-CCK8 (S) (50 μl; 200 pM) and competing compound. Total and non-specific binding of [^125 I]-CCK^8 (S) are defined using 50 μl of buffer and 50 μl of 100 nM L-364,718respectively. The assay is terminated by rapid filtration through pre-soaked Whatman GF/B filters using a Brandell Cell Harvester. The filters were washed (3×3 ml) with ice-cold 50 mM Tris HCl (pH 7.4 at 4° C. and bound radioactivity is determined by counting (1 min) in a gamma counter.

Row | Ki (CCKB) | Kb (Gastrin) | Structure (SMILES) | further results
1 | 316 nM | 126 nM | O=C(O)c1cc(NC(=O)[C@H](Cc2ccccc2)NC(=O)c2cc(O)ccc2C(=O)NCC23CC4CC(CC(C4)C2)C3)cc(C(=O)O)c1 [Example 23, 1-(1S-(3,5-dicarboxyphenylamino-carbonyl)-2-phenylethylaminocarbonyl)-2-(1-adamantanemethylamino-carbonyl)-5-hydroxybenzene] | 
2 | 1.58 nM | 2.51 nM | CN(C)c1ccc(C(=O)N[C@@H](Cc2ccccc2)C(=O)Nc2cc(C(=O)O)cc(C(=O)O)c2)c(C(=O)NCC23CC4CC(CC(C4)C2)C3)c1 [Example 25, 1-(1S-(3,5-dicarboxyphenylamino-carbonyl)-2-phenylethylaminocarbonyl)-2-(l-adamantanemethyl-aminocarbonyl)-4-dimethylaminobenzene] | 
3 | 126 nM |  | O=C(O)c1cc(NC(=O)[C@H](Cc2ccccc2)N2Cc3cccc(C(=O)NCC45CC6CC(CC(C6)C4)C5)c3C2=O)cc(C(=O)O)c1 [Example 27, 7-(1-adamantanemethylaminocarbonyl)-2-(1S-(3,5-dicarboxyphenylaminocarbonyl)-2-phenylethyl) indol-1-one] | Ki (CCKA): 3160 nM
4 | 7.94 nM | 5.01 nM | CNc1ccc(C(=O)N[C@@H](Cc2ccccc2)C(=O)Nc2cc(C(=O)O)cc(C(=O)O)c2)c(C(=O)NCC23CC4CC(CC(C4)C2)C3)c1 [Example 24, 1-(1S-(3,5-dicarboxyphenylamino-carbonyl)-2-phenylethylaminocarbonyl)-2-(1-adamantanemethyl-aminocarbonyl)-4-methylaminobenzene] | 
5 | 15.8 nM | 1580 nM | COc1ccc(C(=O)NCC23CC4CC(CC(C4)C2)C3)c(C(=O)N[C@@H](Cc2ccccc2F)C(=O)Nc2cc(C(=O)O)cc(C(=O)O)c2)c1 [Example 29, 1-(1S-(3,5-dicarboxyphenylamino-carbonyl)-2-(2-fluorophenyl)ethylaminocarbonyl)-2-(1-adamantane-methylaminocarbonyl)-5-methoxybenzene] | 
6 | 15.8 nM | 12.6 nM | COc1ccc(C(=O)N[C@@H](Cc2ccccc2F)C(=O)Nc2cc(C(=O)O)cc(C(=O)O)c2)c(C(=O)NCC23CC4CC(CC(C4)C2)C3)c1 [Example 28, 1-(1S-(3,5-dicarboxyphenylamino-carbonyl)-2-(2-fluorophenyl)ethylaminocarbonyl)-2-(1-adamantane-methylaminocarbonyl)-4-methoxybenzene] | 

Second part, the molecule before the results:

Row | Structure (SMILES) | Ki (CCKB) | Kb (Gastrin) | further results
7 | O=C(Cc1ccccc1C(=O)N[C@@H](Cc1ccccc1)C(=O)Nc1cc(C(=O)O)cc(C(=O)O)c1)NCC12CC3CC(CC(C3)C1)C2 [Example 9, (1S-(3,5-dicarboxyphenylaminocarbonyl)-2-phenylethylaminocarbonyl)-2-(1-adamantanemethylaminocarbonyl-methyl)benzene] | 251 nM |  | Ki (CCKA): 3160 nM
8 | O=C(Cc1ccccc1C(=O)NCC12CC3CC(CC(C3)C1)C2)N[C@@H](Cc1ccccc1)C(=O)Nc1cc(C(=O)O)cc(C(=O)O)c1 [Example 8, (1S-(3,5-dicarboxyphenylaminocarbonyl)-2-phenylethylaminocarbonylmethyl)-2-(1-adamantanemethylamino-carbonyl)benzene] | 158 nM |  | Ki (CCKA): 3160 nM
9 | O=C(O)c1cc(NC(=O)[C@H](Cc2ccccc2)NC(=O)c2c(F)ccc(F)c2C(=O)NCC23CC4CC(CC(C4)C2)C3)cc(C(=O)O)c1 [Example 22, 1-(1S-(3,5-dicarboxyphenylamino-carbonyl)-2-phenylethylaminocarbonyl)-2-(1-adamantanemethyl-aminocarbonyl)-3,6-difluorobenzene] |  |  | CCKB pKi (CCKB): 7.3; Gastrin pKB (Gastrin): 7.5
10 | COc1ccc(C(=O)N[C@@H](Cc2ccccc2)C(=O)Nc2cc(C(=O)O)cc(C(=O)O)c2)c(C(=O)NCC23CC4CC(CC(C4)C2)C3)c1 [Example 18, 1-(1S-(3,5-dicarboxyphenylamino-carbonyl)-2-phenylethylaminocarbonyl)-2-(1-adamantanemethyl-aminocarbonyl)-4-methoxybenzene] | 25.1 nM | 31.6 nM | 
11 | O=C(O)c1cc(NC(=O)[C@H](Cc2ccccc2)NC(=O)c2ccccc2C(=O)NCc2cccc3ccccc23)cc(C(=O)O)c1 [Example 5, (1R-(3,5-dicarboxyphenylaminocarbonyl)-2-phenylethylaminocarbonyl)-2-(1-naphthalenemethylaminocarbonyl)-benzene] |  |  | CCKB pKi (CCKB): 6.3; CCKA pKi (CCKA): 7.0
